Assay results: ChEMBL document CHEMBL5346969 (J Med Chem, 2023)
The source made the active and inactive calls. The rule behind the calls is not given here.

Experiments:
[1] = Toxicity in immunodeficient BALB/c mouse assessed as bone marrow suppression by measuring RBC level at 20 mg/kg, ip for 14 days by whole blood analysis; assay type: organism-based, Erythrocyte; conditions: in vivo, 336 h, time 14 day
[2] = Toxicity in immunodeficient BALB/c mouse assessed as bone marrow suppression by measuring HGB level at 20 mg/kg, ip for 14 days by whole blood analysis; assay type: organism-based; conditions: in vivo, 336 h, time 14 day
[3] = biological target: T1, Phospholipid hydroperoxide glutathione peroxidase GPX4 (Homo sapiens) (UniProt P36969); test: Binding affinity to GPX4 (unknown origin) at Cys66 residue assessed as change in mass of single charged y5+ ion at 100 uM incubated for 1.5 hrs by SDS-PAGE based LC-MS/MS analysis
T1 sequence (whole entry): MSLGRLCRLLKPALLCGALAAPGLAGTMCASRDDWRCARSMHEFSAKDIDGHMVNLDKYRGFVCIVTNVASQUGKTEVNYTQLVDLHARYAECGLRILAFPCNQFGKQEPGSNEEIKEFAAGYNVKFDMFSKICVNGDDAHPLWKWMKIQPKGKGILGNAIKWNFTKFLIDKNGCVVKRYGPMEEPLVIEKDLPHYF

[4] = biological target: T1, Phospholipid hydroperoxide glutathione peroxidase GPX4 (Homo sapiens); test: Binding affinity to GPX4 (35 to 48 residues) (unknown origin) at Sec46 residue assessed as increase in mass of single charged y3+ ion at 100 uM incubated for 1.5 hrs by SDS-PAGE based LC-MS/MS analysis
[5] = test system: MDA-MB-231; test: Induction of ferroptosis in siRNA mediated GPX4 knockdown human MDA-MB-231 cells with assessed as change in xCT protein expression level at 20 nM incubated for 8 hrs by Western blot analysis; assay type: functional, cell-based
[6] = MRT(t) in rat at 10 mg/kg, ip and measured upto 24 hrs by LC-MS/MS analysis; assay type: ADME, organism-based; conditions: in vivo
[7] = Cmax in rat at 10 mg/kg, ip and measured upto 24 hrs by LC-MS/MS analysis; assay type: ADME, organism-based; set-up: time < 24 hrs, dose 10 mg/kg, route ip; conditions: in vivo
[8] = biological target: T1, Phospholipid hydroperoxide glutathione peroxidase GPX4 (Homo sapiens); test: Binding affinity to GPX4 (unknown origin) at Cys66 residue assessed as change in mass of single charged b5+ ion at 100 uM incubated for 1.5 hrs by SDS-PAGE based LC-MS/MS analysis
[9] = Half life in rat at 10 mg/kg, ip and measured upto 24 hrs by LC-MS/MS analysis; assay type: ADME, organism-based; conditions: in vivo
[10] = biological target: T1, Phospholipid hydroperoxide glutathione peroxidase GPX4 (Homo sapiens); test: Binding affinity to GPX4 in human MDA-MB-231 cells assessed as decrease in apprent aggregation temperature at 1 uM incubated for 2 hrs by CESTA analysis (Rvb=58.3 +/- 0.7 degreeC); assay type: cell-based
[11] = test system: MDA-MB-231; test: Induction of ferroptosis in siRNA mediated GPX4 knockdown human MDA-MB-231 cells with assessed as change in FTH1 protein expression level at 20 nM incubated for 8 hrs by Western blot analysis; assay type: functional, cell-based
[12] = test system: MDA-MB-231; test: Induction of ferroptosis in siRNA mediated GPX4 knockdown human MDA-MB-231 cells with assessed as change in ACSL4 protein expression level at 20 nM incubated for 8 hrs by Western blot analysis; assay type: functional, cell-based
[13] = Clearance in rat at 10 mg/kg, ip and measured upto 24 hrs by LC-MS/MS analysis; assay type: ADME, organism-based; conditions: in vivo

Compound | Activity [1] | Activity [2] | Activity [3] | Activity [4] | Activity [5] | MRT last at 24 h [6] | Cmax [7] | Activity [8] | t1/2 [9] | T [10] | Activity [11] | Activity [12] | CL [13]
COc1cc(N(C(=O)CBr)c2ccc3c(c2)OCCO3)cc(OC)c1F | Toxic | Toxic | – | – | – | – | – | – | – | – | – | – | –
COc1cc(N(C(=O)CCl)c2ccc3c(c2)OCCO3)cc(OC)c1F | – | – | inactive | Active | inactive | 1.71 h | 5205 ng/mL | inactive | 1.9 h | 51.8 °C | inactive | inactive | 13.8 mL/min/kg
